For six molecules, Kd results are on record in PMC9481563, “Structural insights into the pSer/pThr dependent regulation of the SHP2 tyrosine phosphatase in insulin and CD28 signaling” (Nature Communications, 2022).

The structures appear in SMILES notation.

The assay concerns the target T1, SHP2 catalytic domain (219–528), C459S, wild-type (inactive) (Homo sapiens, UniProt Q06124, C459S).
T1 construct: SHP2 catalytic domains (219–528 with or without C459S) were sub-cloned into pBH4 vectors; His6 (N); made in house; host or cells: E. coli BL21 (DE3)
T1 sequence (Q06124 219-528 C459S): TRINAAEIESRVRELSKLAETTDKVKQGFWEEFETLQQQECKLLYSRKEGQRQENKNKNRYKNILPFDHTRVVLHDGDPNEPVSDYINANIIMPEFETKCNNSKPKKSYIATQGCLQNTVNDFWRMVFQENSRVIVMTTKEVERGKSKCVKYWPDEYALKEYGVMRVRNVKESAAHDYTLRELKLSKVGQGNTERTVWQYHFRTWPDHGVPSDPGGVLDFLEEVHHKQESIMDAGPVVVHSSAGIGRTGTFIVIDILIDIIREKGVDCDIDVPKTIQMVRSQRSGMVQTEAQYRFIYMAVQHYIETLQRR
Briefly: Fluorescence polarization titrations, inactive SHP2 catalytic domain. The class given is binding. To be noted: competitive FP titration vs CF-ppIRS1 100 nM, protein fixed, unlabelled peptide varied; n = 3 technical replicates. From the text:
The two SH2 domains of PI3KR1 (UniProt P27986; nSH2: 321−433 cSH2: 614–724) were cloned from HEK293T cDNA pool, and subsequently ligated into a modified pET vector encoding maltose binding protein (MBP) tag on the N-terminal and a hexa-His tag on the C-terminal end of the construct. Similarly, the catalytic, tyrosine phosphatase domains of PTPRε (P23469 first domain: 107–399) and PTP1B (P18031; 1–229) were cloned from a HEK293T cDNA pool, and inserted into a pBH4 vector encoding an N-terminal His6 tag (for the final binding experiments, an MBP-tagged version of PTPRε was employed). […] Wild-type C-terminal FLAG-tagged human IRS1 was cloned between HindIII-NotI sites of pcDNA3.1(+) vector (#V79020 Invitrogen, Waltham MA USA). Ser/Ala mutant IRS1 was generated by replacing the region of S616/S636/S666/S736 positions with a cassette carrying S616A/S636A/S666A/S736A mutations. All constructs were validated by complete Sanger sequencing before protein expression and purification. The oligonucleotide sequences used are shown on Supplementary table 4.
Fluorescence polarization was always measured in triplicates, on black Corning low volume round bottom 384-well plates (with 10 ul volumes), using a BioTek Cytatation 5 reader, with the green fluorescent protein (GFP) cube filter set (ex: 485/20, em: 528/20, gain: 50, height: 7.5). Fluorescence polarization data was evaluated on Origin 2018. The dissociation constants (Kd) were determined by using the appropriate quadratic and cubic equations inserted as a user-defined function and applying nonlinear fit until convergence. The fitting formulae are shown at Supplementary note 1. Kd ratio distributions for Fig. 6 were calculated using a Monte-Carlo approach (Supplementary note 2).
Supplementary note 1. Curve fitting of fluorescence polarization (FP) measurements.
To evaluate polarization values from direct and competitive titrations, we used the following fitting formulae in Origin 2018, as detailed below.
Direct titration curves were fitted according to the following formula: […]
Where Imin is the minimal anisotropy, Imax is the (asymptotically estimated) maximal intensity. K0 is the starting concentration of the protein, while T0 is the (fixed) concentration of the labelled peptide and Kd is the dissociation constant.
Competitive titration curves were fitted with a different formula (In addition to those defined above, constants KdT KdB B0 T0 and D0 here refer to the Kd derived from the direct titration, the unknown Kd of the analyte, the labelled peptide concentration, the competitor peptide concentration as well as the protein concentration, respectively).
The ± sign refers to two different scenarios, depending on the sign of discriminant (KdT > KdB or […]). For unknown analytes, the choice of sign is not arbitrary, as the fitting will not converge unless the appropriate formula is chosen: […]
Where A, B and C correspond to the following expressions: […]
(Fluorescence polarisation rises when a labelled molecule tumbles more slowly, as on binding a larger partner.)

As for `CSCC[C@H](NC(=O)[C@@H]1CCCN1C(=O)[C@H](CCSC)NC(=O)[C@H](Cc1ccc(OP(=O)(O)O)cc1)NC(=O)[C@H](CC(=O)O)NC(=O)CNC(=O)[C@H](CO)NC(=O)CNC(=O)[C@H](CCCCN)NC(=O)[C@H](CCCNC(=N)N)NC(=O)CN)C(=O)N[C@@H](COP(=O)(O)O)C(=O)N1CCC[C@H]1C(=O)N[C@@H](CCCCN)C(=O)N[C@@H](CO)C(=O)O` [ppIRS1], the affinity, expressed as Kd, was 5.25 ± 0.3 µM.

For the molecule `CSCC[C@H](NC(=O)[C@H](Cc1ccc(OP(=O)(O)O)cc1)NC(=O)[C@H](CC(=O)O)NC(=O)[C@H](CO)NC(=O)[C@H](Cc1c[nH]cn1)NC(=O)[C@H](CC(C)C)NC(=O)[C@H](CC(C)C)NC(=O)[C@H](CCCNC(=N)N)NC(=O)[C@H](CO)NC(=O)[C@@H](N)CCCNC(=N)N)C(=O)N[C@@H](CC(N)=O)C(=O)N[C@@H](CCSC)C(=O)N[C@H](C(=O)N1CCC[C@H]1C(=O)N[C@@H](CCCNC(=N)N)C(=O)N[C@@H](CCCNC(=N)N)C(=O)O)[C@@H](C)O` [p0CD28], the Kd (as a rule, the concentration at which binding is half-saturated) amounted to 39.7 ± 1.81 µM.

On to `CC[C@H](C)[C@H](NC(=O)[C@H](CC(N)=O)NC(=O)[C@@H](NC(=O)[C@H](Cc1ccc(OP(=O)(O)O)cc1)NC(=O)[C@H](CCC(=O)O)NC(=O)CNC(=O)[C@@H]1CCCN1C(=O)[C@H](CO)NC(=O)[C@H](CCCCN)NC(=O)[C@@H]1CCCN1C(=O)[C@@H](N)CCC(=O)O)C(C)C)C(=O)N[C@@H](CCC(=O)O)C(=O)N[C@@H](Cc1ccccc1)C(=O)O` [p0SRev-IRS1], for which binding was characterised by a dissociation constant (Kd) of 8.4 ± 0.75 µM.

The molecule `CC[C@H](C)[C@H](NC(=O)[C@H](CC(N)=O)NC(=O)[C@@H](NC(=O)[C@H](Cc1ccc(OP(=O)(O)O)cc1)NC(=O)[C@H](CCC(=O)O)NC(=O)CNC(=O)[C@@H]1CCCN1C(=O)[C@H](COP(=O)(O)O)NC(=O)[C@H](CCCCN)NC(=O)[C@@H]1CCCN1C(=O)[C@@H](N)CCC(=O)O)C(C)C)C(=O)N[C@@H](CCC(=O)O)C(=O)N[C@@H](Cc1ccccc1)C(=O)O` [ppSRev-IRS1] registered a dissociation constant Kd of 0.72 ± 0.06 µM.

As for `CSCC[C@H](NC(=O)[C@H](Cc1ccc(OP(=O)(O)O)cc1)NC(=O)[C@H](CC(=O)O)NC(=O)[C@H](CO)NC(=O)[C@H](Cc1c[nH]cn1)NC(=O)[C@H](CC(C)C)NC(=O)[C@H](CC(C)C)NC(=O)[C@H](CCCNC(=N)N)NC(=O)[C@H](CO)NC(=O)[C@@H](N)CCCNC(=N)N)C(=O)N[C@@H](CC(N)=O)C(=O)N[C@@H](CCSC)C(=O)N[C@H](C(=O)N1CCC[C@H]1C(=O)N[C@@H](CCCNC(=N)N)C(=O)N[C@@H](CCCNC(=N)N)C(=O)O)[C@@H](C)OP(=O)(O)O` [ppCD28], binding was characterised by a dissociation constant (Kd) of 5.66 ± 0.29 µM.

With `CSCC[C@H](NC(=O)[C@@H]1CCCN1C(=O)[C@H](CCSC)NC(=O)[C@H](Cc1ccc(OP(=O)(O)O)cc1)NC(=O)[C@H](CC(=O)O)NC(=O)CNC(=O)[C@H](CO)NC(=O)CNC(=O)[C@H](CCCCN)NC(=O)[C@H](CCCNC(=N)N)NC(=O)CN)C(=O)N[C@@H](CO)C(=O)N1CCC[C@H]1C(=O)N[C@@H](CCCCN)C(=O)N[C@@H](CO)C(=O)O` [p0IRS1], the equilibrium dissociation constant (Kd) came to 255 ± 34.9 µM.
